Measured values taken from patent US4751235A, “Anti-atherosclerotic indolizine derivatives” (Sandoz Pharm. Corp., priority 1986, dated 1988).
Where a name gives a salt, the structure may show the parent alone.

Tests used:
[1] = test system: 3 β-hydroxysterol synthesis; experiment: Test B. In Vivo Cholesterol Biosynthesis Inhibition Test; conditions: Rattus norvegicus, rats, oral administration, read-out: ED50 (dose producing 50% inhibition of 3 β-hydroxysterol synthesis)
Method: Test B. In Vivo Cholesterol Biosynthesis Inhibition Test: This test is also known and is carried out as described on pages 60-61 of said application Ser. No. 06/741,903 and on page 33 of World (PCT) Published Patent Application No. 84/02131, both of which are hereby incorporated by reference as if set forth herein in their entirety.

HMG-CoA reductase = target: T1, HMG-CoA reductase (Rattus norvegicus, UniProt P51639); experiment: Test A. In Vitro Microsomal Assay of HMG-CoA Reductase Inhibition; type: biochemical; conditions: read-out: IC50 (concentration producing 50% inhibition of HMG-CoA reductase activity)
T1 construct: from tissue; host or cells: microsomes (printed); rat liver by own knowledge of the cited method
T1 sequence (P51639 1-887): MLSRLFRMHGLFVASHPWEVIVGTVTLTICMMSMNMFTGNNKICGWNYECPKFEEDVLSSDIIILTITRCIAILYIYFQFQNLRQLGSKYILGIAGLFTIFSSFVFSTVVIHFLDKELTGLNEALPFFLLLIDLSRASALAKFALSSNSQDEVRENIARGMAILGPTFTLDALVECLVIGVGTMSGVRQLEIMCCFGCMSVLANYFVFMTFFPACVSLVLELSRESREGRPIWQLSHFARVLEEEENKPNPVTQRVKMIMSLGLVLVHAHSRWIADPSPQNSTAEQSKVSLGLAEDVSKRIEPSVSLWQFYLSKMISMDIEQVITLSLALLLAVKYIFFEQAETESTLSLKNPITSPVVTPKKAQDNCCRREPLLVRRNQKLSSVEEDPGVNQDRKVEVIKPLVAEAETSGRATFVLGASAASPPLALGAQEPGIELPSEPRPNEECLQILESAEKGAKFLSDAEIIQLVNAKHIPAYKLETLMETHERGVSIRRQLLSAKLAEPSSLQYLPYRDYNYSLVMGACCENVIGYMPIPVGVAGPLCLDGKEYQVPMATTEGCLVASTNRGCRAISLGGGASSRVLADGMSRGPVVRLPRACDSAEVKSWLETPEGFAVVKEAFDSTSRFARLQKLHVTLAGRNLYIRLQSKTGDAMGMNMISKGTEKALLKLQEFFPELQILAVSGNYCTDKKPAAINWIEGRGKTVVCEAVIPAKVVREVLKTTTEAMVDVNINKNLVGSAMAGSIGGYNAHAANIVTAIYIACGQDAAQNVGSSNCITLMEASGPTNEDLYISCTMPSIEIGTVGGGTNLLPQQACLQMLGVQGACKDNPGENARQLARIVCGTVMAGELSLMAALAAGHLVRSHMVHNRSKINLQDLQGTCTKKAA
Method: Test A. In Vitro Microsomal Assay of HMG-CoA Reductase Inhibition:
This test is known and is carried out as described on pages 59-60 of application Ser. No. 06/741,903 (filed June 6, 1985) and on page 30 of World (PCT) Published Patent Application No. 84/02131 both of which are hereby incorporated by reference as if set forth herein in their entirety. The concentration of the test substance (compound of Formula I) in the assay system is 0.0005-2,000 μmolar. The obtained IC50 is the concentration of the test substance in the assay system observed or calculated to produce a 50% inhibition of HMG-CoA reductase activity.

Row | Compound | ED50 [1] | IC50 (HMG-CoA reductase)
1 | CCOC(=O)C[C@H](O)C[C@H](O)/C=C/c1c(C(C)C)c2ccccn2c1-c1ccc(F)cc1 (relative stereo) [Example 1, 7-[3-(4-fluorophenyl)-1-(1-methylethyl)-2-indolizinyl]-3,5,-dihydroxy-6-heptenoic acid, ethyl ester (trans)] | 0.05 mg/kg | 
2 | CC(C)c1c(/C=C/[C@@H](O)C[C@@H](O)CC(=O)O)c(-c2ccc(F)cc2)n2ccccc12 (relative stereo) [Example 2, 7-[3-(4-fluorophenyl)-1-(1-methylethyl)-2-indolizinyl]-3,5,-dihydroxy-6-heptenoic acid, sodium salt (trans)] |  | 0.011 µM
3 | CC[C@H](C)C(=O)O[C@H]1CCC=C2C=C[C@H](C)[C@H](CC[C@@H]3C[C@@H](O)CC(=O)O3)[C@H]21 [Compactin] | 3.5 mg/kg | 
4 | CC[C@H](C)C(=O)O[C@H]1C[C@@H](C)C=C2C=C[C@H](C)[C@H](CC[C@@H]3C[C@@H](O)CC(=O)O3)[C@H]21 [Mevinolin] | 0.41 mg/kg | 
